Columns and labels:
Experiment in all cases: Bliss excess, mean over the matrix (fraction); higher = more synergy
[1] = test system: CAL-148 (Breast Carcinoma)
In short: (§1)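 Cell lines grown in DMEM/F12 or RPMI with 10% FBS were plated in 1536-well plates and held 24 hours at 37°C, 5% CO2 before 72 hours of exposure to two-drug dose matrices, with DMSO typically at 0.2%. CellTiter-Glo 2.0 luminescence gave viability, which was converted to inhibition. Vehicle wells were set to 0 and blank wells to 1. Combination Emax is the second-highest inhibition in the matrix, and Bliss excess is the observed combination effect minus the expected EA + EB − EA·EB, where EA and EB are the single-agent effects.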

[2] = test system: CCRF-CEM (T-Lymphoblastic Leukemia)
In short: as §1

[3] = test system: COLO-205 (Colorectal Carcinoma)
In short: as §1

[4] = test system: CaR-1 (Colorectal Carcinoma)
In short: as §1

[5] = test system: DEL (T-Cell Non-Hodgkin's Lymphoma)
In short: as §1

[6] = test system: Daoy (Other Solid Carcinomas)
In short: as §1

[7] = test system: HCC1806 (Breast Carcinoma)
In short: as §1

[8] = test system: HOS (Osteosarcoma)
In short: as §1

[9] = test system: HT-1376 (Bladder Carcinoma)
In short: as §1

[10] = test system: Hs-578-T (Breast Carcinoma)
In short: as §1

[11] = test system: HuP-T4 (Pancreatic Carcinoma)
In short: as §1

[12] = test system: KP-1N (Pancreatic Carcinoma)
In short: as §1

[13] = test system: LU-135 (Small Cell Lung Carcinoma)
In short: as §1

[14] = test system: ME-1 (Acute Myeloid Leukemia)
In short: as §1

[15] = test system: NCI-H2085 (Non-Small Cell Lung Carcinoma)
In short: as §1

[16] = test system: RO82-W-1 (Thyroid Gland Carcinoma)
In short: as §1

[17] = test system: Ramos-2G6-4C10 (Burkitt's Lymphoma)
In short: as §1

[18] = test system: T98G (Glioblastoma)
In short: as §1

[19] = test system: TCCSUP (Bladder Carcinoma)
In short: as §1

[20] = test system: UM-UC-3 (Bladder Carcinoma)
In short: as §1

Row | SMILES | Bliss excess [1] | Bliss excess [2] | Bliss excess [3] | Bliss excess [4] | Bliss excess [5] | Bliss excess [6] | Bliss excess [7] | Bliss excess [8] | Bliss excess [9] | Bliss excess [10] | Bliss excess [11] | Bliss excess [12] | Bliss excess [13] | Bliss excess [14] | Bliss excess [15] | Bliss excess [16] | Bliss excess [17] | Bliss excess [18] | Bliss excess [19] | Bliss excess [20]
1 | Cc1c2c(nn1C)CSCc1cc(n(C)n1)CSc1cc(c3ccccc3c1)OCCCc1c(C(=O)O)n(C)c3c-2c(Cl)ccc13 [AZD5991] + C[C@@H]1COCCN1C2=NC(=NC(=C2)C3(CC3)[S@](=N)(=O)C)C4=C5C=CNC5=NC=C4 [AZD6738] (first compound max 1 µM, 7x7, partner max 10 µM) | 0.0584 | 0.0397 | 0.0116 | -0.0134 | 0.004 | 0.0268 | 0.0218 | 0.0356 | 0.0144 | -0.0254 | 0.0361 | 0.0679 | 0.0274 | 0.0454 | 0.0312 | -0.0303 | 0.0097 | -0.0069 | 0.0241 | 0.0159
2 | CN(CCO)CC[C@H](CSc1ccccc1)Nc1ccc(S(=O)(=O)NC(=O)c2ccc(N3CCC([C@@H](O)c4ccccc4-c4ccc(Cl)cc4)CC3)cc2)cc1S(=O)(=O)C(F)(F)F [AZD4320] + C[C@@H]1COCCN1C2=NC(=NC(=C2)C3(CC3)[S@](=N)(=O)C)C4=C5C=CNC5=NC=C4 [AZD6738] (first compound max 1 µM, 7x7, partner max 10 µM) | -0.0231 | 0.0394 | -0.0575 | 0.0178 | 0.0294 | 0.0178 | 0.0208 | 0.0111 | 0.0078 | -0.136 | 0.0013 | -0.0135 | 0.0417 | 0.0166 | -0.0912 | -0.0025 | -0.0342 | -0.0468 | 0.009 | 0.0368
3 | Cc1c2c(nn1C)CSCc1cc(n(C)n1)CSc1cc(c3ccccc3c1)OCCCc1c(C(=O)O)n(C)c3c-2c(Cl)ccc13 [AZD5991] + CCN(CCO)CCCOc1ccc2c(Nc3cc(CC(=O)Nc4cccc(F)c4)[nH]n3)ncnc2c1 [AZD2811] (first compound max 1 µM, 7x7, partner max 1 µM) | 0.0597 | -0.0343 | 0.0153 | -0.0004 | -0.0295 | 0.0678 | 0.0297 | 0.007 | -0.0077 | 0.0487 | -0.0024 | -0.0662 | 0.0109 | 0.0139 | -0.0575 | -0.0642 | 0.141 | -0.0339 | -0.0288 | 0.0296
4 | NC1(C(=O)N[C@@H](CCO)c2ccc(Cl)cc2)CCN(c2ncnc3[nH]ccc23)CC1 [Capivasertib] + Cn1cnc2c(F)c(Nc3ccc(Br)cc3Cl)c(C(=O)NOCCO)cc21 [Selumetinib] (first compound max 10 µM, 7x7, partner max 10 µM) | 0.0597 | 0.0792 | -0.0598 | 0.0076 | 0.054 | 0.0225 | 0.0578 | 0.0007 | -0.0149 | -0.0194 | 0.028 | 0.0357 | 0.0413 | -0.0089 | 0.0035 | -0.0063 | -0.0166 | 0.0241 | -0.0385 | 0.0946
5 | CC(=O)Nc1cccc(-n2c(=O)n(C3CC3)c(=O)c3c(Nc4ccc(I)cc4F)n(C)c(=O)c(C)c32)c1 [Trametinib] + Cc1nc(-c2cn3c(n2)-c2ccc(-c4cnn(C(C)(C)C(N)=O)c4)cc2OCC3)n(C(C)C)n1 [Taselisib] (first compound max 1 µM, 7x7, partner max 10 µM) | 0.0554 | 0.0951 | 0.0229 | 0.0783 | 0.166 | 0.0146 | 0.257 | 0.0604 | 0.0546 | 0.0773 | 0.241 | 0.101 | 0.113 | 0.118 | 0.0062 | 0.0426 | -0.0053 | 0.0822 | 0.0896 | 0.137
6 | Cc1cc2ncnn2cc1Nc1ncc2c(n1)n(C1CCOCC1)c(=O)n2C [AZD7648] + CCN(CCO)CCCOc1ccc2c(Nc3cc(CC(=O)Nc4cccc(F)c4)[nH]n3)ncnc2c1 [AZD2811] (first compound max 10 µM, 7x7, partner max 1 µM) | -0.0213 | -0.0396 | -0.0303 | -0.0102 | 0.0547 | 0.0083 | 0.071 | 0.0182 | -0.0382 | -0.0561 | 0.0254 | -0.02 | -0.0223 | 0.0036 | 0.0409 | -0.115 | 0.188 | 0.0116 | 0.0258 | 0.001
7 | NC1(C(=O)N[C@@H](CCO)c2ccc(Cl)cc2)CCN(c2ncnc3[nH]ccc23)CC1 [Capivasertib] + CCN(CCO)CCCOc1ccc2c(Nc3cc(CC(=O)Nc4cccc(F)c4)[nH]n3)ncnc2c1 [AZD2811] (first compound max 10 µM, 7x7, partner max 1 µM) | -0.0142 | 0.0001 | -0.0551 | -0.0236 | -0.0743 | 0.0146 | 0.0012 | -0.0107 | -0.0314 | -0.036 | -0.0614 | -0.0423 | -0.0334 | -0.055 | -0.0318 | -0.0598 | 0.139 | 0.0344 | -0.0397 | -0.0255
8 | COc1cccc(OCCCN)c1-c1cc(Nc2cnc(C#N)cn2)n[nH]1 [Prexasertib] + C[C@@H]1COCCN1C2=NC(=NC(=C2)C3(CC3)[S@](=N)(=O)C)C4=C5C=CNC5=NC=C4 [AZD6738] (first compound max 1 µM, 7x7, partner max 10 µM) | 0.0988 | -0.0013 | 0.0369 | 0.0097 | 0.001 | 0.0032 | -0.0472 | 0.0261 | -0.0105 | -0.0779 | -0.0504 | 0.0331 | 0.0442 | 0.0637 | -0.0092 | 0.005 | -0.0191 | 0.0453 | -0.0245 | 0.0563
9 | C[C@@H]1COCCN1c1cc(C2([S@](C)(=N)=O)CC2)nc(-c2ccnc3[nH]ccc23)n1 [AZD6738] + O=C(c1cc(Cc2n[nH]c(=O)c3ccccc23)ccc1F)N1CCN(C(=O)C2CC2)CC1 [Olaparib] (first compound max 10 µM, 7x7, partner max 10 µM) | 0.0123 | 0.0377 | 0.0205 | -0.0391 | 0.0399 | 0.0116 | 0.0103 | 0.0132 | -0.0687 | -0.0002 | -0.0037 | 0.0379 | 0.0331 | -0.0056 | -0.0571 | -0.098 | -0.0881 | -0.0192 | 0.067 | 0.0829
10 | CCN(CCO)CCCOc1ccc2c(Nc3cc(CC(=O)Nc4cccc(F)c4)[nH]n3)ncnc2c1 [AZD2811] + C[C@@H]1COCCN1C2=NC(=NC(=C2)C3(CC3)[S@](=N)(=O)C)C4=C5C=CNC5=NC=C4 [AZD6738] (first compound max 1 µM, 7x7, partner max 10 µM) | -0.0252 | -0.0295 | -0.0872 | -0.0528 | 0.0156 | -0.0153 | -0.014 | -0.0432 | -0.0566 | -0.0811 | 0.0305 | -0.0189 | -0.0552 | -0.0813 | -0.0913 | -0.0543 | -0.0008 | -0.0645 | 0.0006 | 0.0276
11 | COc1cccc(OCCCN)c1-c1cc(Nc2cnc(C#N)cn2)n[nH]1 [Prexasertib] + C=CCn1c(=O)c2cnc(Nc3ccc(N4CCN(C)CC4)cc3)nc2n1-c1cccc(C(C)(C)O)n1 [AZD1775] (first compound max 1 µM, partner max 1 µM) | 0.136 | 0.0186 | 0.125 | 0.086 | 0.0279 | 0.0573 | 0.0552 | 0.0888 | -0.0538 | -0.0242 | 0.0747 | 0.0763 | -0.0004 | 0.0408 | 0.124 | -0.126 | 0.112 | -0.0232 | 0.0389 | 0.14
12 | COc1cccc(OCCCN)c1-c1cc(Nc2cnc(C#N)cn2)n[nH]1 [Prexasertib] + O=C(c1cc(Cc2n[nH]c(=O)c3ccccc23)ccc1F)N1CCN(C(=O)C2CC2)CC1 [Olaparib] (first compound max 1 µM, 7x7, partner max 10 µM) | -0.0507 | 0.0024 | -0.0301 | -0.0635 | 0.0035 | 0.0261 | -0.0284 | -0.0168 | -0.0976 | -0.0324 | -0.0834 | 0.0018 | -0.0079 | -0.0619 | -0.208 | -0.0731 | -0.0875 | -0.134 | -0.006 | -0.0015
13 | CN(CCO)CC[C@H](CSc1ccccc1)Nc1ccc(S(=O)(=O)NC(=O)c2ccc(N3CCC([C@@H](O)c4ccccc4-c4ccc(Cl)cc4)CC3)cc2)cc1S(=O)(=O)C(F)(F)F [AZD4320] + C1CN(CCC1(C(=O)N[C@@H](CCO)C2=CC=C(C=C2)Cl)N)C3=NC=NC4=C3C=CN4 [Capivasertib] (first compound max 1 µM, 7x7, partner max 3 µM) | 0.0346 | 0.0753 | -0.0031 | -0.0668 | -0.0028 | 0.0185 | -0.0078 | -0.0467 | -0.0959 | -0.0198 | -0.0353 | -0.0389 | 0.0051 | -0.0374 | -0.0401 | -0.0513 | 0.038 | -0.0371 | -0.0568 | -0.0228
14 | CC(=O)c1c(C)c2cnc(Nc3ccc(N4CCNCC4)cn3)nc2n(C2CCCC2)c1=O [Palbociclib] + Cc1c2c(nn1C)CSCc1cc(n(C)n1)CSc1cc(c3ccccc3c1)OCCCc1c(C(=O)O)n(C)c3c-2c(Cl)ccc13 [AZD5991] (first compound max 10 µM, 7x7, partner max 1 µM) | -0.0063 | -0.014 | -0.0487 | -0.0621 | 0.0007 | -0.0112 | -0.0164 | -0.0182 | -0.0073 | 0.0238 | -0.0184 | -0.0384 | 0.0165 | -0.0141 | -0.0374 | -0.0283 | -0.0226 | 0.0003 | -0.0395 | -0.0212

— the supplement of paper PMC11061612
